≈ marks a conversion by molar mass, not a printed value. Where “and” joins values, the source holds several entries; their conditions need not be identical. Identical values can stand only once.
Test: Solubility study of Form A in buffers, water and biorelevant media (suspension shaken 24 hours at 25° C., filtrate by UPLC)
Format: physicochemical
Settings: for solubility at 24 h: thermodynamic from solid
Description: • pH 1.00 buffer • pH 3.00 buffer • pH 5.00 buffer • pH 7.00 buffer • pH 9.00 buffer • Water • SGF without Triton • FaSSIF • FeSSIF b. Testing Procedure
Weigh about 5 mg of compound (I) into glass vial and add 0.5 ml testing medium listed above to form suspension. Shake these suspensions at 1200 rpm for about 24 hours under 25° C.
At the end of 24 hours, pull out all the vials and filter the suspensions by 0.22 μm PVDF filters. Check the pH value and concentration of filtrate by pH meter and UPLC respectively.
The result indicates the solubility is pH dependent.

- solubility at 24 h (FaSSIF, 25 °C, about 24 hours, individual replicate): 34 µg/mL (≈ 70.3 µM)
- solubility at 24 h (FaSSIF, 25 °C, about 24 hours, mean ± spread of three replicates): 33 µg/mL (≈ 68.2 µM)
- Solubility (FaSSIF, about 24 hours, individual replicate): 33 µg/mL (≈ 68.2 µM)
- solubility at 24 h (FeSSIF, 25 °C, about 24 hours, individual replicate): 614 µg/mL (≈ 1270 µM)
- solubility at 24 h (FeSSIF, 25 °C, about 24 hours, mean ± spread of three replicates): 618 ± 7 µg/mL (≈ 1280 µM)
- Solubility (FeSSIF, about 24 hours, individual replicate): 611 µg/mL and 628 µg/mL
- solubility at 24 h (SGF without Triton-X100, 25 °C, simulated gastric fluid, SGF without Triton-X100, about 24 hours, individual replicate): > 10000 µg/mL
- solubility at 24 h (SGF without Triton-X100, 25 °C, simulated gastric fluid, SGF without Triton-X100, about 24 hours, mean of three replicates): > 10000 µg/mL
- Solubility (Water, about 24 hours, individual replicate): 6 µg/mL (≈ 12.4 µM)
- solubility at 24 h (pH 1.0 buffer, 25 °C, pH 1, aqueous buffer, about 24 hours, individual replicate): > 10000 µg/mL
- solubility at 24 h (pH 1.0 buffer, 25 °C, pH 1, aqueous buffer, about 24 hours, mean of three replicates): > 10000 µg/mL
- solubility at 24 h (pH 3.0 buffer, 25 °C, pH 3, aqueous buffer, about 24 hours, individual replicate): 5480 µg/mL (≈ 11300 µM)
- solubility at 24 h (pH 3.0 buffer, 25 °C, pH 3, aqueous buffer, about 24 hours, mean ± spread of three replicates): 5347 ± 47 µg/mL (≈ 11100 µM)
- Solubility (pH 3.0 buffer, about 24 hours, individual replicate): 5366 µg/mL and 5468 µg/mL
- solubility at 24 h (pH 5.0 buffer, 25 °C, pH 5, aqueous buffer, about 24 hours, individual replicate): 91 µg/mL (≈ 188 µM)
- solubility at 24 h (pH 5.0 buffer, 25 °C, pH 5, aqueous buffer, about 24 hours, mean ± spread of three replicates): 101 ± 9 µg/mL (≈ 209 µM)
- Solubility (pH 5.0 buffer, about 24 hours, individual replicate): 97 µg/mL and 114 µg/mL
- solubility at 24 h (pH 7.0 buffer, 25 °C, pH 7, aqueous buffer, about 24 hours, individual replicate): 7 µg/mL (≈ 14.5 µM)
- solubility at 24 h (pH 7.0 buffer, 25 °C, pH 7, aqueous buffer, about 24 hours, mean ± spread of three replicates): 6 µg/mL (≈ 12.4 µM)
- Solubility (pH 7.0 buffer, about 24 hours, individual replicate): 6 µg/mL (≈ 12.4 µM)
- solubility at 24 h (pH 9.0 buffer, 25 °C, pH 9, aqueous buffer, about 24 hours, individual replicate): 6 µg/mL (≈ 12.4 µM)
- solubility at 24 h (pH 9.0 buffer, 25 °C, pH 9, aqueous buffer, about 24 hours, mean ± spread of three replicates): 6 µg/mL (≈ 12.4 µM)
- solubility at 24 h (water, 25 °C, about 24 hours, individual replicate): 7 µg/mL (≈ 14.5 µM)
- solubility at 24 h (water, 25 °C, about 24 hours, mean ± spread of three replicates): 6 µg/mL (≈ 12.4 µM)
Compound: Cc1cc(N2CC3CCC(C2)C3Nc2nc3n(n2)CCCC[C@H]3c2ccc(F)c(F)c2F)ncn1 (stereo partly drawn) [Form A, (9S)-N-[3-(6-methylpyrimidin-4-yl)-3-azabicyclo[3.2.1]octan-8-yl]-9-(2,3,4-trifluorophenyl)-6,7,8,9-tetrahydro-5H-[1,2,4]triazolo[1,5-a]azepin-2-amine]

Reference: US12679840B2, “Process for the preparation of (9S)-N-[3-(6-methylpyrimidin-4-yl)-3-azabicyclo[3.2.1]octan-8-yl]-9-(2,3,4-trifluorophenyl)-6,7,8,9-tetrahydro-5H-[1,2,4]triazolo[1,5-a]azepin-2-amine and its solid form” (Hoffmann-La Roche Inc., priority 2020, dated 2026)
